Experimental findings from ChEMBL document CHEMBL5625171, “Design, synthesis, and biological studies of novel sulfonamide derivatives as farnesoid X receptor agonists” (Eur J Med Chem, 2023) are described below.

In one data set the target is T1, Bile acid receptor (Homo sapiens, UniProt Q96RI1).
T1 sequence (Q96RI1 whole entry): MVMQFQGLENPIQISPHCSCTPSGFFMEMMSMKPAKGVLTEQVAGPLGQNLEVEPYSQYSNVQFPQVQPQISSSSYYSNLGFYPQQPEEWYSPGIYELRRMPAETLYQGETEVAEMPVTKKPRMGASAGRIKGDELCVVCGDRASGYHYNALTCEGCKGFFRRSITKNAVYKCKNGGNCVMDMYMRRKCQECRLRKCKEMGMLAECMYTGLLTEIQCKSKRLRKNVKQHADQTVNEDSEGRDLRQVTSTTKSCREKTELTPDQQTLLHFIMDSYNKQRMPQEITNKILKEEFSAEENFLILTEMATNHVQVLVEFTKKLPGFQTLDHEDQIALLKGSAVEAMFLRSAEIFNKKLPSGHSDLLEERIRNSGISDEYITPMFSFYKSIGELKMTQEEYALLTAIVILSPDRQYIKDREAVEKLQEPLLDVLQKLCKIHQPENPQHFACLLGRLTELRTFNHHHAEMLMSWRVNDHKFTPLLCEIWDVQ
The data set is described as follows: Agonist activity at FXR LBD (unknown origin) using fluorescein-SRC2-2 as substrate incubated for 3 hrs by TR-FRET assay. (In general: TR-FRET usually uses a lanthanide donor and a delayed reading to cut background.)

Data set [1] is described as follows: Sub-acute toxicity in ICR mouse assessed as animal death at 500 mg/kg, po qd treated for 10 days. To be noted: in vivo, 240 h, time 10 day. The format is organism-based.
A short description of data set [2]: Sub-acute toxicity in ICR mouse assessed as change in serum AST level at 500 mg/kg, po qd treated for 10 days. The format is organism-based. To be noted: in vivo, 240 h, time 10 day.
A short description of data set [3]: Sub-acute toxicity in ICR mouse assessed as change in serum TG level at 500 mg/kg, po qd treated for 10 days. The format is organism-based. The settings on record: in vivo, 240 h, time 10 day.
Data set [4] can be described thus: Sub-acute toxicity in ICR mouse assessed as change in serum DBIL level at 500 mg/kg, po qd treated for 10 days. To be noted: in vivo, 240 h, time 10 day. The format is organism-based.
The nature of data set [5]: Sub-acute toxicity in ICR mouse assessed as change in serum TC level at 500 mg/kg, po qd treated for 10 days. The data set is classed as organism-based. To be noted: in vivo, 240 h, time 10 day.
Data set [6] in a line: Sub-acute toxicity in ICR mouse assessed as change in serum urea level at 500 mg/kg, po qd treated for 10 days. The settings on record: in vivo, 240 h, time 10 day. The format is organism-based.
Data set [7] in a line: Sub-acute toxicity in ICR mouse assessed as change in serum ALP level at 500 mg/kg, po qd treated for 10 days. The format is organism-based. To be noted: in vivo, 240 h, time 10 day.
Data set [8] can be described thus: Sub-acute toxicity in ICR mouse assessed as change in serum ALT level at 500 mg/kg, po qd treated for 10 days. The format is organism-based. To be noted: in vivo, 240 h, time 10 day.
Data set [9] is described as follows: Sub-acute toxicity in ICR mouse assessed as change in serum creatinine level at 500 mg/kg, po qd treated for 10 days. The data set is classed as organism-based. To be noted: in vivo, 240 h, time 10 day.
A short description of data set [10]: Sub-acute toxicity in ICR mouse assessed as abnormal behaviour at 500 mg/kg, po qd treated for 10 days. The data set is classed as organism-based. The settings on record: in vivo, 240 h, time 10 day.
Data set [11] is described as follows: Sub-acute toxicity in ICR mouse assessed as anomaly in spleen at 500 mg/kg, po qd treated for 10 days. The data set is classed as organism-based. The settings on record: in vivo, 240 h, time 10 day.
A short description of data set [12]: Sub-acute toxicity in ICR mouse assessed as anomaly in lung at 500 mg/kg, po qd treated for 10 days. To be noted: in vivo, 240 h, time 10 day. The format is organism-based.
The nature of data set [13]: Sub-acute toxicity in ICR mouse assessed as change in serum TBIL level at 500 mg/kg, po qd treated for 10 days. The settings on record: in vivo, 240 h, time 10 day. The data set is classed as organism-based.
Data set [14] can be described thus: Sub-acute toxicity in ICR mouse assessed as anomaly in liver at 500 mg/kg, po qd treated for 10 days. The data set is classed as organism-based. The settings on record: in vivo, 240 h, time 10 day.
Data set [15] is described as follows: Sub-acute toxicity in ICR mouse assessed as anomaly in kidney at 500 mg/kg, po qd treated for 10 days. The format is organism-based. To be noted: in vivo, 240 h, time 10 day.
Data set [16] is described as follows: Sub-acute toxicity in ICR mouse assessed as anomaly in heart at 500 mg/kg, po qd treated for 10 days. The data set is classed as organism-based. To be noted: in vivo, 240 h, time 10 day.

For the compound `CC(C)CN(c1ccc(COc2ccc3c(CC(=O)O)coc3c2)cc1)S(=O)(=O)c1c(Cl)cccc1Cl`, the concentration giving a half-maximal response (EC50) (usually the concentration giving half of the maximal effect) on Bile acid receptor was more than 10 µM.

In turn, `CC(C)CN(c1ccc(COc2cccc(CC(=O)O)c2)cc1)S(=O)(=O)c1c(Cl)cccc1Cl` showed an EC50 on Bile acid receptor of more than 10 µM.

Turning to `CC(C)CN(c1ccc(-c2ccc(OCC(=O)O)c(F)c2)cc1)S(=O)(=O)c1c(Cl)cccc1Cl`, the Activity entry in data set [1], in data set [2], in [3], in data set [4], in data set [5] and in [6] was “Non-Toxic” throughout. Also, the Activity entry in data set [7], in [8], in data set [9], in [10], in data set [11] and in data set [12] was “Non-Toxic” each time. Moreover, the Activity result in data set [13], in [14], in data set [15] and in data set [16] was “Non-Toxic” each time.

`CC#CC(CC(=O)O)c1ccc(OCc2ccc(N(CC(C)C)S(=O)(=O)c3c(Cl)cccc3Cl)cc2)cc1` (stereo not given): at Bile acid receptor, the 50% effective concentration (EC50) is more than 10 µM.

Take `CC(C)CN(c1ccc(-c2ccc(C(N)=O)cc2)cc1)S(=O)(=O)c1c(Cl)cccc1Cl`: the half-maximal effective concentration (EC50) on Bile acid receptor is more than 10 µM.

`CC(C)CN(c1ccc(-c2ccc(C(=O)NC3CC3)cc2)cc1)S(=O)(=O)c1c(Cl)cccc1Cl` had an EC50 on Bile acid receptor of more than 10 µM.

The compound `CC(C)CN(c1ccc(-c2ccc(OC(C)(C)C(=O)O)c(F)c2)cc1)S(=O)(=O)c1c(Cl)cccc1Cl` showed a concentration for a half-maximal effect (EC50) at Bile acid receptor of more than 10 µM.

At Bile acid receptor, `CC(C)CN(c1ccc(-c2ccc(OCC(=O)O)c(F)c2)cc1)S(=O)(=O)C1CCCCC1` returned an EC50 of more than 10 µM.

In turn, `CC(C)CN(c1ccc(-c2cccc(CC(=O)O)c2)cc1)S(=O)(=O)c1c(Cl)cccc1Cl` registered a half-maximal effective concentration (EC50) at Bile acid receptor of more than 10 µM.

For `Cc1ccc(S(=O)(=O)N(CC(C)C)c2ccc(-c3ccc(CCC(=O)O)cc3)cc2)cc1`, the concentration for a half-maximal effect (EC50) at Bile acid receptor is more than 10 µM.

`CC(C)CN(c1ccc(-c2cccc(C(=O)O)c2)cc1)S(=O)(=O)c1c(Cl)cccc1Cl` had an EC50 at Bile acid receptor of more than 10 µM.

Compound `CC(C)CN(c1ccc(-c2cccc(C3(C(=O)O)CC3)c2)cc1)S(=O)(=O)c1c(Cl)cccc1Cl` came in with an EC50 at Bile acid receptor of more than 10 µM.

On to `CC(C)CN(c1ccc(-c2ccc(OCC(=O)O)cc2)cc1)S(=O)(=O)c1c(Cl)cccc1Cl`, for which, on Bile acid receptor, a half-maximal effect (EC50) was put at 0.89 µM.

On to `Cc1ccc(S(=O)(=O)N(CC(C)C)c2ccc(-c3ccc(OCC(=O)O)c(F)c3)cc2)cc1`, for which the EC50 on Bile acid receptor is more than 10 µM.

Turning to `CC(C)CN(c1ccc(-c2ccc(CCC(=O)O)cc2)cc1)S(=O)(=O)c1c(Cl)cccc1Cl`, the EC50 on Bile acid receptor was found to be 6.5 µM.

In the case of `O=C(O)c1cccc(-c2ccc(N(CC3CC3)S(=O)(=O)c3c(Cl)cccc3Cl)cc2)c1`, on Bile acid receptor, the EC50 is more than 10 µM.

On Bile acid receptor, `CC(C)CN(c1ccc(-c2ccc(C(=O)O)cc2)cc1)S(=O)(=O)c1c(Cl)cccc1Cl` returned an EC50 of 3.5 µM.

With `Cc1ccc(S(=O)(=O)N(CC(C)C)c2ccc(-c3ccc(C(=O)O)cc3)cc2)cc1`, the EC50 at Bile acid receptor was more than 10 µM.

Compound `CC(C)CN(c1ccc(-c2ccc(OC(C)C(=O)O)c(F)c2)cc1)S(=O)(=O)c1c(Cl)cccc1Cl` (stereo not given) yielded an EC50 at Bile acid receptor of 8.7 µM.

The compound `CC(C)CN(c1ccc(-c2ccc(C3(C(=O)O)CC3)cc2)cc1)S(=O)(=O)c1c(Cl)cccc1Cl` gave an EC50 on Bile acid receptor of more than 10 µM.
